Where two headings read alike, the source gives them in different places.
What was measured:
Type in all cases: in vivo
Viola tricolor (VIOTR) [1] = experiment: Post-emergence herbicidal action against VIOTR
Summary of the method: (§1)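 Greenhouse plants sprayed at the one-leaf stage, 2–3 weeks after sowing, with WP or EC formulations plus 0.5% additive at 600 l/ha water. Activity rated visually after about 3 weeks versus untreated controls (100% = dead, 0% = like control), at 320 g/ha or lower.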

[2] = test system: Echinochloa crus-galli (ECHCG); experiment: Pre-emergence herbicidal action against ECHCG
Summary of the method: (§2)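 Greenhouse pot trial: seeds sown, soil-covered, sprayed before emergence with compound in water (0.5% additive; 600 l/ha; ≤320 g/ha). Scoring visual, ~3 weeks, 0–100% scale vs untreated.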

[3] = test system: Amaranthus retroflexus (AMARE); experiment: Pre-emergence herbicidal action against AMARE; details: visual scoring after about 3 weeks vs untreated controls
Summary of the method: as §2

Zea mays (ZEAMX) = test system: Zea mays (ZEAMX)
Summary of the method: (§3)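 Greenhouse crops in sandy loam sprayed post-emergence at the one-leaf stage, 2–3 weeks after sowing, with WP or EC formulations in water plus 0.5% additive at 600 l/ha. Damage rated visually about 3 weeks later versus untreated controls (0% = like control, 100% = dead); suffixes a–c denote different doses.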

[4] = test system: Verconica persica (VERPE); experiment: Post-emergence herbicidal action against VERPE
Summary of the method: as §1

Lolium rigidum (LOLRI) [5] = experiment: Post-emergence herbicidal action against LOLRI
Summary of the method: as §1

[6] = test system: Alopecurus myosuroides (ALOMY); experiment: Post-emergence herbicidal action against ALOMY; details: visual rating about 3 weeks after treatment vs untreated controls (100% = plants have died, 0% = like control plants)
Summary of the method: as §1

[7] = test system: Amaranthus retroflexus (AMARE); experiment: Post-emergence herbicidal action against AMARE
Summary of the method: as §1

[8] = test system: Alopecurus myosuroides (ALOMY); experiment: Pre-emergence herbicidal action against ALOMY; details: scored visually after about 3 weeks, 100% = plants have died
Summary of the method: as §2

Setaria viridis (SETVI) [9] = experiment: Pre-emergence herbicidal action against SETVI
Summary of the method: as §2

[10] = test system: Pharbitis purpurea (PHBPU); experiment: Pre-emergence herbicidal action against PHBPU
Summary of the method: as §2

[11] = test system: Abutilon theophrasti (ABUTH); experiment: Pre-emergence herbicidal action against ABUTH; details: Dosage column 320 g/ha (title prints 3200 g/ha); scored visually after about 3 weeks; 100% = plants have died
Summary of the method: as §2

[12] = test system: Polygonum convolvulus (POLCO); experiment: Pre-emergence herbicidal action against POLCO
Summary of the method: as §2

[13] = test system: Polygonum convolvulus (POLCO); experiment: Post-emergence herbicidal action against POLCO
Summary of the method: as §1

[14] = test system: Echinochloa crus-galli (ECHCG); experiment: Post-emergence herbicidal action against ECHCG
Summary of the method: as §1

[15] = test system: Verconica persica (VERPE); experiment: Pre-emergence herbicidal action against VERPE
Summary of the method: as §2

Avena fatua (AVEFA) [16] = experiment: Post-emergence herbicidal action against AVEFA; details: visual rating about 3 weeks after treatment
Summary of the method: as §1

Setaria viridis (SETVI) [17] = experiment: Post-emergence herbicidal action against SETVI
Summary of the method: as §1

[18] = test system: Matricaria inodora (MATIN); experiment: Pre-emergence herbicidal action against MATIN
Summary of the method: as §2

[19] = test system: Matricaria inodora (MATIN); experiment: Post-emergence herbicidal action against MATIN
Summary of the method: as §1

Viola tricolor (VIOTR) [20] = experiment: Pre-emergence herbicidal action against VIOTR
Summary of the method: as §2

Lolium rigidum (LOLRI) [21] = experiment: Pre-emergence herbicidal action against LOLRI
Summary of the method: as §2

[22] = test system: Pharbitis purpurea (PHBPU); experiment: Post-emergence herbicidal action against PHBPU
Summary of the method: as §1

Avena fatua (AVEFA) [23] = experiment: Pre-emergence herbicidal action against AVEFA; details: visual scoring after about 3 weeks vs untreated controls
Summary of the method: as §2

Oryza sativa (ORYSA) = details: crop plant compatibility
Summary of the method: as §3

[24] = 80 g/ha, effect in comparison to untreated controls

Row | SMILES | Post-emergence action against VIOTR in % (Viola tricolor (VIOTR) [1]; 80 g/ha) [%] | Post-emergence action against VIOTR in % (Viola tricolor (VIOTR) [1]; 320 g/ha) [%] | Pre-emergence action against ECHCG in % ([2]; dosage 320 g/ha) [%] | Pre-emergence action against AMARE in % ([3]; 80 g/ha) [%] | Pre-emergence action against AMARE in % ([3]; 320 g/ha) [%] | Post-emergence action against VERPE in % ([4]; dosage 80 g/ha) [%] | Pre-emergence action against ALOMY ([8]; 320 g/ha) [%] | Pre-emergence action against SETVI in % (Setaria viridis (SETVI) [9]; dosage 320 g/ha) [%] | Pre-emergence action against PHBPU in % ([10]; dosage 320 g/ha) [%] | Pre-emergence action against ABUTH [11] [%] | Pre-emergence action against POLCO in % ([12]; dosage 80 g/ha) [%] | Pre-emergence action against POLCO in % ([12]; dosage 320 g/ha) [%] | Post-emergence action against ECHCG in % ([14]; dosage 80 g/ha) [%] | Pre-emergence action against VERPE in % ([15]; dosage 320 g/ha) [%] | Pre-emergence action against MATIN in % ([18]; dosage 320 g/ha) [%] | Pre-emergence action against VIOTR in % (Viola tricolor (VIOTR) [20]; 320 g/ha, Viola tricolor) [%] | Pre-emergence action against VIOTR in % (Viola tricolor (VIOTR) [20]; dosage 80 g/ha) [%] | Pre-emergence action against LOLRI in % (Lolium rigidum (LOLRI) [21]; dosage 80 g/ha) [%] | Pre-emergence action against LOLRI in % (Lolium rigidum (LOLRI) [21]; dosage 320 g/ha) [%] | Pre-emergence action against AVEFA in % (Avena fatua (AVEFA) [23]; 320 g/ha) [%] | also measured
1 | Cc1cccnc1-n1nc(OCC(=O)O)c(Br)c1-c1ccc(F)nc1 [Example I-324] | 80 | 80 | 100 | 100 | 100 | 90 | 100 | 100 | 90 | 80 | 90 | 100 | 90 | 100 | 90 | 100 | 100 | 100 | 100 | 100 | Post-emergence action against ZEAMX in % (Zea mays (ZEAMX); crop plant compatibility, 80 g/ha, effect vs untreated controls): 0%; Post-emergence action against VERPE in % ([4]; 320 g/ha, VERPE): 90%; Post-emergence action against LOLRI in % (Lolium rigidum (LOLRI) [5]; dosage 320 g/ha): 90%; Post-emergence action against ALOMY in % ([6]; 320 g/ha): 100%; Post-emergence action against AMARE in % ([7]; 80 g/ha, visual rating about 3 weeks after treatment vs untreated controls (100% = plants have died, 0% = like control plants)): 90%; Post-emergence action against AMARE in % ([7]; 320 g/ha, visual rating about 3 weeks after treatment): 90%; Pre-emergence action against ALOMY ([8]; 80 g/ha): 100%; Post-emergence action against POLCO in % ([13]; dosage 80 g/ha): 80%; Post-emergence action against POLCO in % ([13]; dosage 320 g/ha): 80%; Post-emergence action against ECHCG in % ([14]; dosage 320 g/ha): 90%; Post-emergence action against AVEFA in % (Avena fatua (AVEFA) [16]; 80 g/ha): 100%; Post-emergence action against AVEFA in % (Avena fatua (AVEFA) [16]; 320 g/ha): 100%; Post-emergence action against SETVI in % (Setaria viridis (SETVI) [17]; dosage 80 g/ha): 80%; Post-emergence action against SETVI in % (Setaria viridis (SETVI) [17]; dosage 320 g/ha): 90%; Post-emergence action against MATIN in % ([19]; dosage 320 g/ha): 80%; Post-emergence action against PHBPU in % ([22]; dosage 320 g/ha): 90%
2 | C[C@@H](Oc1nn(-c2nc(F)ccc2F)c(-c2cncc(F)c2)c1Br)C(=O)O [Example I-155] | 80 | 80 | 100 | 90 | 100 | 80 | 100 | 100 | 90 | 90 | 90 | 90 | 80 | 100 | 90 | 100 | 100 | 90 | 100 | 90 | Pre-emergence action against ECHCG in % ([2]; dosage 80 g/ha): 90%; Post-emergence action against ORYSA in % (Oryza sativa (ORYSA); [24]): 10%; Post-emergence action against VERPE in % ([4]; 320 g/ha, VERPE): 80%; Post-emergence action against LOLRI in % (Lolium rigidum (LOLRI) [5]; dosage 320 g/ha): 80%; Post-emergence action against ALOMY in % ([6]; 320 g/ha): 80%; Pre-emergence action against SETVI in % (Setaria viridis (SETVI) [9]; dosage 80 g/ha): 80%; Pre-emergence action against PHBPU in % ([10]; dosage 80 g/ha): 90%; Post-emergence action against ECHCG in % ([14]; dosage 320 g/ha): 80%; Post-emergence action against AVEFA in % (Avena fatua (AVEFA) [16]; 320 g/ha): 80%; Post-emergence action against SETVI in % (Setaria viridis (SETVI) [17]; dosage 80 g/ha): 80%; Post-emergence action against SETVI in % (Setaria viridis (SETVI) [17]; dosage 320 g/ha): 90%; Pre-emergence action against MATIN in % ([18]; dosage 80 g/ha): 90%; Post-emergence action against MATIN in % ([19]; dosage 320 g/ha): 80%; Post-emergence action against PHBPU in % ([22]; dosage 80 g/ha): 80%; Post-emergence action against PHBPU in % ([22]; dosage 320 g/ha): 90%
3 | CCOC(=O)[C@@H](C)Oc1nn(-c2ncccc2F)c(-c2ccc(F)nc2)c1C(F)(F)F [Example I-308] | 90 | 90 | 100 | 100 | 100 | 90 | 100 | 100 | 90 | 100 | 100 | 100 | 90 | 100 | 100 | 100 | 100 | 100 | 100 | 100 | Pre-emergence action against ECHCG in % ([2]; dosage 80 g/ha): 100%; Post-emergence action against VERPE in % ([4]; 320 g/ha, VERPE): 90%; Post-emergence action against LOLRI in % (Lolium rigidum (LOLRI) [5]; dosage 80 g/ha): 90%; Post-emergence action against LOLRI in % (Lolium rigidum (LOLRI) [5]; dosage 320 g/ha): 100%; Post-emergence action against ALOMY in % ([6]; 80 g/ha): 100%; Post-emergence action against ALOMY in % ([6]; 320 g/ha): 100%; Pre-emergence action against ALOMY ([8]; 80 g/ha): 100%; Pre-emergence action against PHBPU in % ([10]; dosage 80 g/ha): 90%; Post-emergence action against ECHCG in % ([14]; dosage 320 g/ha): 90%; Pre-emergence action against VERPE in % ([15]; dosage 80 g/ha): 100%; Post-emergence action against AVEFA in % (Avena fatua (AVEFA) [16]; 80 g/ha): 90%; Post-emergence action against AVEFA in % (Avena fatua (AVEFA) [16]; 320 g/ha): 90%; Pre-emergence action against MATIN in % ([18]; dosage 80 g/ha): 100%; Post-emergence action against MATIN in % ([19]; dosage 80 g/ha): 80%; Post-emergence action against MATIN in % ([19]; dosage 320 g/ha): 90%; Post-emergence action against PHBPU in % ([22]; dosage 320 g/ha): 90%; Pre-emergence action against AVEFA in % (Avena fatua (AVEFA) [23]; 80 g/ha): 100%
4 | CCOC(=O)[C@@H](C)Oc1nn(-c2ncccc2F)c(-c2ccc(F)nc2)c1Br [Example I-33] |  |  | 100 | 90 | 100 | 90 | 100 | 100 | 90 | 80 | 90 | 100 | 90 | 100 | 90 | 100 | 100 | 90 | 100 | 100 | Pre-emergence action against ECHCG in % ([2]; dosage 80 g/ha): 90%; Post-emergence action against ZEAMX in % (crop plant compatibility) (Zea mays (ZEAMX); 20 g/ha, ZEAMX, effect in comparison to untreated controls): 10%; Post-emergence action against ORYSA in % (Oryza sativa (ORYSA); 20 g/ha, effect vs untreated controls): 0%; Post-emergence action against ORYSA in % (Oryza sativa (ORYSA); [24]): 10%; Post-emergence action against LOLRI in % (Lolium rigidum (LOLRI) [5]; dosage 80 g/ha): 80%; Post-emergence action against ALOMY in % ([6]; 80 g/ha): 90%; Pre-emergence action against ALOMY ([8]; 80 g/ha): 100%; Pre-emergence action against SETVI in % (Setaria viridis (SETVI) [9]; dosage 80 g/ha): 90%; Post-emergence action against AVEFA in % (Avena fatua (AVEFA) [16]; 80 g/ha): 90%; Post-emergence action against MATIN in % ([19]; dosage 80 g/ha): 80%; Pre-emergence action against AVEFA in % (Avena fatua (AVEFA) [23]; 80 g/ha): 80%
